Assay results published in US9005314B2, “Biphenyl benzyl ether marker compounds for liquid hydrocarbons and other fuels and oils” (Dow Global Technologies LLC, priority 2010, dated 2015).

Tests used:
[1] = Metal adsorptivity: marked xylene treated with metal shavings, GC analysis; format: physicochemical; settings: 100 mL marked xylene, 5 grams metal shavings, room temperature, 8 hours
Protocol: (§1) The stability and extractability of a representative marker was performed using xylene solutions containing between 100-1000 ppm maker and an equivalent amount of squalene internal reference standard using the following protocols:
(§2) Laundering Agents: • 1) 5% sulfuric acid • 2) 98% sulfuric acid • 3) 5% NaOH solution • 4) 50% NaOH solution To test for metal adsorptivity, 100 mL marked xylene tests solution is treated with 5 grams metal shavings at room temperature for 8 hours. GC analysis is again used to determine any loss of marker to the metal surface.

[2] = Laundering stability/extractability of marker in xylene solution, GC analysis versus un-laundered reference; format: physicochemical; settings: 8 hours; for Marker: 95:5 marked xylenes:agent, relative to control = 100; for Change %: versus control
Protocol: as §1
Mix 95 parts marked xylenes with 5 parts laundering agent in a 100 mL vial. Mix gently for 8 hours using a magnetic stir bar. Stop mixing and remove a xylene solution aliquot. Analyze by GC and compare marker response to reference (un-laundered) sample.
as §2

Compound `Cc1ccccc1OCc1ccc(-c2ccc(COc3ccccc3C)cc2)cc1` [4,4′-bis(2-methylphenoxymethyl)-1,1′-biphenyl] has a melting point of 209 °C.

In the case of `Cc1ccc(OCc2ccc(-c3ccc(COc4ccc(C)cc4)cc3)cc2)cc1` [4,4′-bis(4-methylphenoxymethyl)-1,1′-biphenyl], the melting point was 206 °C.

For `c1ccc(OCc2ccc(-c3ccc(COc4ccccc4)cc3)cc2)cc1` [4,4′-bis(phenoxymethyl)-1,1′-biphenyl], the Change % [1] was “+4%”, the Marker [1] was 104% and the Marker ([2]; 5% H2SO4 laundering agent) was 85.51. For the same compound, the Change % ([2]; 5% H2SO4 laundering agent) was −14.49%, the Marker ([2]; 5% NaOH laundering agent) was 100.01 and the Change % ([2]; 5% NaOH laundering agent) was 0.01%. For the same compound, the Marker ([2]; 50% NaOH laundering agent) was 101.85, the Change % ([2]; 50% NaOH laundering agent) was 1.85% and the Marker ([2]; 98% H2SO4 laundering agent) was 0.00. It also gave a Change % ([2]; 98% H2SO4 laundering agent) of −100.00% and a melting point of 176 °C.

`CC(C)(C)c1ccc(OCc2ccc(-c3ccc(COc4ccc(C(C)(C)C)cc4)cc3)cc2)cc1` [Example 4, 4,4′-bis(4-t-butylphenoxymethyl)-1,1′-biphenyl] showed a melting point of 218 °C.
